From patent US8288410B2, “3-substituted quinolinium and 7H-indolo[2,3-c]quinolinium salts as new antiinfectives” (Florida Agricultural and Mechanical University, priority 2008, dated 2012)
Where two headings read alike, the source gives them in different places.

Columns and labels:
[1] = test system: Candida albicans ATTC 90028; assay: Antifungal susceptibility testing, Candida albicans; type: cell-based
In short: (§1)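 Modified NCCLS broth microdilution, samples serially diluted from 20 μg/mL top concentration, inocula per 0.5 McFarland (C. albicans in SDB or RPMI 1640; C. neoformans in SDB; A. fumigatus in YM broth or RPMI-1640 + 5% Alamar Blue). IC50 from percent growth versus concentration; MIC read visually as lowest concentration without detectable growth.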

[2] = test system: Cryptococcus neoformans ATCC 90113; assay: Antifungal susceptibility testing, Cryptococcus neoformans; type: cell-based
In short: as §1

[3] = test system: Aspergillus fumigatus ATCC 90906; assay: Antifungal susceptibility testing, Aspergillus fumigatus; type: cell-based; conditions: for A fu IC50 / IC50: Aspergillus fumigatus; for IC50: ATCC90906, read-out: A fu IC50
In short: as §1

MRSA = assay: Antibacterial susceptibility testing, MRSA; type: cell-based, methicillin resistant Staphylococcus aureus
In short: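 MRSA, sourced from the American Type Culture Collection, was tested for susceptibility with a modified National Committee for Clinical Laboratory Standards method. DMSO sample solutions were serially diluted in saline and placed in duplicate in 96 well microplates. Broth-diluted bacterial suspensions, standardized to 0.5 McFarland, brought each well to 200 μL, with the highest test concentration at 20 μg/mL.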

Vero Cells = assay: Cytotoxicity, Vero cells; type: cell-based
[4] = ATTC90028, Table 2, read-out: Ca IC50
[5] = ATTC90028, Table 2, read-out: Ca MFC
[6] = ATTC90028, Table 2, read-out: Ca MIC
[7] = ATCC90113, Table 2, read-out: Cn IC50
[8] = ATCC90113, Table 2, read-out: Cn MFC
[9] = ATCC90113, Table 2, read-out: Cn MIC
[10] = Staphylococcus aureus, Table 2, read-out: MRSA IC50
[11] = Staphylococcus aureus, Table 2, read-out: MRSA MIC

C[n+]1cc(N(CCCCCC2CCCCC2)c2ccc(OC(F)(F)F)cc2)cc2ccccc21.[I-] [JRE-3-99-1]
Ca IC50 ([1]; Table 2): 0.45 µg/mL | Ca MFC ([1]; Table 2): 10 µg/mL | Ca MIC ([1]; Table 2): 1.3 µg/mL | Cn IC50 ([2]; Table 2): 0.70 µg/mL | Cn MFC ([2]; Table 2): 1.3 µg/mL | Cn MIC ([2]; Table 2): 1.3 µg/mL | A fu MFC [3]: 2.5 µg/mL | A fu MIC [3]: 2.5 µg/mL | A fu IC50 ([3]; Table 2): 0.95 µg/mL | MRSA IC50 (MRSA; Table 2): 0.65 µg/mL | MRSA MFC (MRSA; Table 2): 1.3 µg/mL | MRSA MIC (MRSA; Table 2): 1.3 µg/mL | TC50 Vero Cells (Vero Cells; Table 2): >10 µg/mL

COc1cccc(N(CCCCCC2CCCCC2)c2cc3ccccc3[n+](C)c2)c1.[I-] [JRE-3-69-1]
Ca IC50 ([1]; Table 2): 0.85 µg/mL | Ca MFC ([1]; Table 2): 2.5 µg/mL | Ca MIC ([1]; Table 2): 2.5 µg/mL | Cn IC50 ([2]; Table 2): 0.55 µg/mL | Cn MFC ([2]; Table 2): 5.0 µg/mL | Cn MIC ([2]; Table 2): 1.3 µg/mL | A fu MFC [3]: 10 µg/mL | A fu MIC [3]: 1.3 µg/mL | A fu IC50 ([3]; Table 2): 0.70 µg/mL | MRSA IC50 (MRSA; Table 2): 0.50 µg/mL | MRSA MFC (MRSA; Table 2): 1.3 µg/mL | MRSA MIC (MRSA; Table 2): 1.3 µg/mL | TC50 Vero Cells (Vero Cells; Table 2): >10 µg/mL

C[n+]1cc(N(CCCCCC2CCCCC2)c2cccc(Cl)c2)cc2ccccc21.[I-] [JRE-4-3-1]
Ca IC50 ([1]; Table 2): 0.90 µg/mL | Ca MFC ([1]; Table 2): 10 µg/mL | Ca MIC ([1]; Table 2): 2.5 µg/mL | Cn IC50 ([2]; Table 2): 0.85 µg/mL | Cn MFC ([2]; Table 2): 5.0 µg/mL | Cn MIC ([2]; Table 2): 1.3 µg/mL | A fu MFC [3]: 10 µg/mL | A fu MIC [3]: 2.5 µg/mL | A fu IC50 ([3]; Table 2): 1.0 µg/mL | MRSA IC50 (MRSA; Table 2): 0.80 µg/mL | MRSA MFC (MRSA; Table 2): 2.5 µg/mL | MRSA MIC (MRSA; Table 2): 1.3 µg/mL | TC50 Vero Cells (Vero Cells; Table 2): >10 µg/mL

C[n+]1cc(N(CCCCCC2CCCCC2)c2ccc3ccccc3c2)cc2ccccc21 [EVK-III-001]
IC50 [1, 4]: 0.2 µg/mL | MFC [1, 5]: 3.1 µg/mL | MIC [1, 6]: 0.39 µg/mL | IC50 [2, 7]: 0.35 µg/mL | MFC [2, 8]: 1.6 µg/mL | MIC [2, 9]: 0.78 µg/mL | A fu MFC [3]: 3.1 µg/mL | A fu MIC [3]: 1.6 µg/mL | IC50 ([3]; Table 2): 0.95 µg/mL | IC50 (MRSA; [10]): 0.3 µg/mL | MIC (MRSA; [11]): 0.78 µg/mL | TC50 Vero Cells (Vero Cells; Table 2): 9.0 µg/mL

C[n+]1cc2c(c3ccc(Cl)cc3n2CCCCCC2CCCCC2)c2ccccc21.[I-] [JRE-3-84-1]
Ca IC50 ([1]; Table 3): 0.70 µg/mL | Ca MFC ([1]; Table 3): 2.5 µg/mL | Ca MIC ([1]; Table 3): 1.3 µg/mL | Cn IC50 ([2]; Table 3): 0.80 µg/mL | Cn MFC ([2]; Table 3): 2.5 µg/mL | Cn MIC ([2]; Table 3): 1.3 µg/mL | A fu MFC [3]: 5.0 µg/mL | A fu MIC [3]: 2.5 µg/mL | A fu IC50 ([3]; Table 3): 1.5 µg/mL | MRSA IC50 (MRSA; Table 3): 0.80 µg/mL | MRSA MFC (MRSA; Table 3): 1.3 µg/mL | MRSA MIC (MRSA; Table 3): 1.3 µg/mL | TC50 Vero Cells (Vero Cells; Table 3): >10 µg/mL

C[n+]1cc(N(CCCCCC2CCCCC2)c2ccc(Cl)cc2)cc2ccccc21.[I-] [JRE-4-9-1]
Ca IC50 ([1]; Table 2): 0.45 µg/mL | Ca MFC ([1]; Table 2): 5.0 µg/mL | Ca MIC ([1]; Table 2): 1.3 µg/mL | Cn IC50 ([2]; Table 2): 0.40 µg/mL | Cn MFC ([2]; Table 2): 2.5 µg/mL | Cn MIC ([2]; Table 2): 0.63 µg/mL | A fu MFC [3]: 10 µg/mL | A fu MIC [3]: 1.3 µg/mL | A fu IC50 ([3]; Table 2): 0.80 µg/mL | MRSA IC50 (MRSA; Table 2): 0.40 µg/mL | MRSA MFC (MRSA; Table 2): 0.63 µg/mL | MRSA MIC (MRSA; Table 2): 0.63 µg/mL | TC50 Vero Cells (Vero Cells; Table 2): 10 µg/mL

C[n+]1cc(N(CCCCCC2CCCCC2)c2cccc(C(F)(F)F)c2)cc2ccccc21.[I-] [JRE-3-61-1]
Ca IC50 ([1]; Table 2): 1.0 µg/mL | Ca MFC ([1]; Table 2): 2.5 µg/mL | Ca MIC ([1]; Table 2): 2.5 µg/mL | Cn IC50 ([2]; Table 2): 0.85 µg/mL | Cn MFC ([2]; Table 2): 2.5 µg/mL | Cn MIC ([2]; Table 2): 1.3 µg/mL | A fu MFC [3]: 10 µg/mL | A fu MIC [3]: 2.5 µg/mL | A fu IC50 ([3]; Table 2): 1.5 µg/mL | MRSA IC50 (MRSA; Table 2): 0.45 µg/mL | MRSA MFC (MRSA; Table 2): 1.3 µg/mL | MRSA MIC (MRSA; Table 2): 0.63 µg/mL | TC50 Vero Cells (Vero Cells; Table 2): >10 µg/mL

C[n+]1cccc(N(CCCCCC2CCCCC2)c2ccc3ccccc3c2)c1 [EVK-III-002]
IC50 [1, 4]: 0.6 µg/mL | MFC [1, 5]: 13 µg/mL | MIC [1, 6]: 1.6 µg/mL | IC50 [2, 7]: 0.85 µg/mL | MFC [2, 8]: 1.6 µg/mL | MIC [2, 9]: 1.6 µg/mL | A fu MFC [3]: 6.3 µg/mL | A fu MIC [3]: 1.6 µg/mL | IC50 ([3]; Table 2): 1 µg/mL | IC50 (MRSA; [10]): 0.45 µg/mL | MIC (MRSA; [11]): 0.78 µg/mL | TC50 Vero Cells (Vero Cells; Table 2): 6.0 µg/mL

COc1ccc(N(CCCCCC2CCCCC2)c2cc3ccccc3[n+](C)c2)cc1.[I-] [JRE-3-68-1]
Ca IC50 ([1]; Table 2): 0.80 µg/mL | Ca MFC ([1]; Table 2): 1.3 µg/mL | Ca MIC ([1]; Table 2): 1.3 µg/mL | Cn IC50 ([2]; Table 2): 0.50 µg/mL | Cn MFC ([2]; Table 2): 5.0 µg/mL | Cn MIC ([2]; Table 2): 1.3 µg/mL | A fu MFC [3]: 10 µg/mL | A fu MIC [3]: 1.3 µg/mL | A fu IC50 ([3]; Table 2): 0.80 µg/mL | MRSA IC50 (MRSA; Table 2): 0.50 µg/mL | MRSA MFC (MRSA; Table 2): 1.3 µg/mL | MRSA MIC (MRSA; Table 2): 1.3 µg/mL | TC50 Vero Cells (Vero Cells; Table 2): >10 µg/mL

C[n+]1cc2c(c3cc(Cl)ccc3n2CCCCCC2CCCCC2)c2ccccc21.[I-] [JRE-3-13-1, 10-Chloro-7-(5-cyclohexyl-pentyl)-5-methyl-7H-indolo[2,3-c]quinolin-5-ium iodide]
IC50 ([1]; ATTC90028, Table 3, read-out: Ca IC50): 0.9 µg/mL | MFC ([1]; ATTC90028, Table 3, read-out: Ca MFC): 1.6 µg/mL | MIC ([1]; ATTC90028, Table 3, read-out: Ca MIC): 1.6 µg/mL | IC50 ([2]; ATCC90113, Table 3, read-out: Cn IC50): 0.9 µg/mL | MFC ([2]; ATCC90113, Table 3, read-out: Cn MFC): 1.6 µg/mL | MIC ([2]; ATCC90113, Table 3, read-out: Cn MIC): 1.6 µg/mL | A fu MFC [3]: 25 µg/mL | A fu MIC [3]: 6.3 µg/mL | IC50 ([3]; Table 3): 2 µg/mL | IC50 (MRSA; Staphylococcus aureus, Table 3, read-out: MRSA IC50): 0.5 µg/mL | MFC (MRSA; Staphylococcus aureus, Table 3, read-out: MRSA MFC): 0.8 µg/mL | MIC (MRSA; Staphylococcus aureus, Table 3, read-out: MRSA MIC): 0.8 µg/mL | TC50 Vero Cells (Vero Cells; Table 3): >10 µg/mL

FC(F)(F)c1ccc2[nH]c3c[n+](CCCCCC4CCCCC4)c4ccccc4c3c2c1.[I-] [JRE-3-4-1]
Ca IC50 ([1]; Table 3): 2.0 µg/mL | Ca MFC ([1]; Table 3): 13 µg/mL | Ca MIC ([1]; Table 3): 6.3 µg/mL | Cn IC50 ([2]; Table 3): 9.0 µg/mL | Cn MFC ([2]; Table 3): — ((-) = >20 μg/mL) | Cn MIC ([2]; Table 3): — ((-) = >20 μg/mL) | A fu IC50 ([3]; Table 3): 10 µg/mL | MRSA IC50 (MRSA; Table 3): 1.0 µg/mL | MRSA MFC (MRSA; Table 3): 3.1 µg/mL | MRSA MIC (MRSA; Table 3): 1.6 µg/mL | TC50 Vero Cells (Vero Cells; Table 3): 10.5 µg/mL

C[n+]1cc2c(c3ccccc3n2CCCCCC2CCCCC2)c2ccccc21.[I-] [JRE-3-100-1]
Ca IC50 ([1]; Table 3): 0.80 µg/mL | Ca MFC ([1]; Table 3): 10 µg/mL | Ca MIC ([1]; Table 3): 2.5 µg/mL | Cn IC50 ([2]; Table 3): 1.5 µg/mL | Cn MFC ([2]; Table 3): 5.0 µg/mL | Cn MIC ([2]; Table 3): 2.5 µg/mL | A fu MFC [3]: 10 µg/mL | A fu MIC [3]: 5.0 µg/mL | A fu IC50 ([3]; Table 3): 3.5 µg/mL | MRSA IC50 (MRSA; Table 3): 0.70 µg/mL | MRSA MFC (MRSA; Table 3): 1.3 µg/mL | MRSA MIC (MRSA; Table 3): 1.3 µg/mL | TC50 Vero Cells (Vero Cells; Table 3): >10 µg/mL
